Measurements as given in publication PMC11558128 (Advanced Science, 2024).
Positions of bridges follow the written chain, without caps; N, C: chain ends. Residues, ends and D or L forms follow the SMILES beside them.

Biological target: T1, rKv4.2 (Rattus norvegicus, UniProt Q63881)
T1 construct: expressed in transfected cells; host or cells: HEK293T
T1 sequence (Q63881 1-630): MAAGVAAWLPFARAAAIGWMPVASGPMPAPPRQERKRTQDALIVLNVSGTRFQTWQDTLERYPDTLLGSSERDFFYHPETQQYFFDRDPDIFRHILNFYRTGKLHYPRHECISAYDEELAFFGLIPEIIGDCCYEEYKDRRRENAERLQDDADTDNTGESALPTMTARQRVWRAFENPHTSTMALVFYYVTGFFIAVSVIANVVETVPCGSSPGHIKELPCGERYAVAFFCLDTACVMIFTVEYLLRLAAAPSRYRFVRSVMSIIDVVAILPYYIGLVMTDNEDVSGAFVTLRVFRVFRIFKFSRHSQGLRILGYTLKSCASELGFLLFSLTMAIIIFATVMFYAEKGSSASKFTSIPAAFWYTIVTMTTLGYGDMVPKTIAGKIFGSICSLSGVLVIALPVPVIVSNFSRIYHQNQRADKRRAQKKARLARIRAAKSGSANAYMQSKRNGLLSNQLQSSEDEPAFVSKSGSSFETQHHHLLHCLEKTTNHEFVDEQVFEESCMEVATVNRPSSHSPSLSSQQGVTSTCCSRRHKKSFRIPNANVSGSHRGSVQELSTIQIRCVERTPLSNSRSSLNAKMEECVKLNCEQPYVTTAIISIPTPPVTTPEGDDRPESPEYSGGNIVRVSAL
Assay: cell-based
Details: for IC50: whole-cell patch clamp, HEK293T, mean ± SEM, n = 3-8, SEM, read-out: IC50 on rKv4.2 WT

`CC(C)C[C@H](NC(=O)[C@H](Cc1ccc(O)cc1)NC(=O)[C@@H](NC(=O)[C@H](CCCCN)NC(=O)[C@@H]1CSSC[C@@H]2NC(=O)[C@H](CCC(=O)O)NC(=O)[C@H](CC(N)=O)NC(=O)[C@H](CCCCN)NC(=O)CNC(=O)[C@@H]3CCCN3C(=O)[C@H]([C@@H](C)O)NC(=O)[C@@H]3CSSC[C@H](NC(=O)[C@H](CC(C)C)NC(=O)[C@H](Cc4ccc(O)cc4)NC(=O)[C@H](CC(N)=O)NC(=O)[C@@H]4CCCN4C(=O)[C@H](CSSC[C@H](NC(=O)CN)C(=O)N[C@@H](CCCCN)C(=O)NCC(=O)N[C@@H](Cc4ccccc4)C(=O)NCC(=O)N[C@@H](CC(=O)O)C(=O)N[C@@H](CO)C(=O)N3)NC2=O)C(=O)N[C@@H](CO)C(=O)N[C@@H](CO)C(=O)N[C@@H](CCCCN)C(=O)N[C@@H](Cc2c[nH]cn2)C(=O)N[C@@H](CCCCN)C(=O)N[C@@H](Cc2c[nH]c3ccccc23)C(=O)N1)C(C)C)C(N)=O` [A21L] (H-GCKGFGDSCTPGKNECCPNYLCSSKHKWCKVYL-NH2; disulfide 2-17, 9-22, 16-29) showed an IC50 of 60 ± 10 nM.

Compound `CC(C)C[C@H](NC(=O)[C@H](Cc1ccc(O)cc1)NC(=O)[C@@H](NC(=O)[C@H](CCCCN)NC(=O)[C@@H]1CSSC[C@@H]2NC(=O)[C@H](CCC(=O)O)NC(=O)[C@H](CC(N)=O)NC(=O)[C@H](CCCCN)NC(=O)CNC(=O)[C@@H]3CCCN3C(=O)[C@H]([C@@H](C)O)NC(=O)[C@@H]3CSSC[C@H](NC(=O)[C@H](C(C)C)NC(=O)[C@H](Cc4ccc(O)cc4)NC(=O)[C@H](CC(N)=O)NC(=O)[C@@H]4CCCN4C(=O)[C@H](CSSC[C@H](NC(=O)CN)C(=O)N[C@@H](CCCCN)C(=O)NCC(=O)N[C@@H](Cc4ccccc4)C(=O)NCC(=O)N[C@@H](CC(=O)O)C(=O)N[C@@H](CO)C(=O)N3)NC2=O)C(=O)N[C@@H](CO)C(=O)N[C@@H](CO)C(=O)N[C@@H](CCCCN)C(=O)N[C@@H](Cc2c[nH]cn2)C(=O)N[C@@H](CCCCN)C(=O)N[C@@H](Cc2c[nH]c3ccccc23)C(=O)N1)C(C)C)C(N)=O` [A21V] (H-GCKGFGDSCTPGKNECCPNYVCSSKHKWCKVYL-NH2; disulfide 2-17, 9-22, 16-29) has an IC50 of 1000 ± 144 nM.

For `CC(C)C[C@H](NC(=O)[C@H](Cc1ccc(O)cc1)NC(=O)[C@@H](NC(=O)[C@H](CCCCN)NC(=O)[C@@H]1CSSC[C@@H]2NC(=O)[C@H](CCC(=O)O)NC(=O)[C@H](CC(N)=O)NC(=O)[C@H](CCCCN)NC(=O)CNC(=O)[C@@H]3CCCN3C(=O)[C@H]([C@@H](C)O)NC(=O)[C@@H]3CSSC[C@H](NC(=O)[C@H](C)NC(=O)[C@H](Cc4ccc(O)cc4)NC(=O)[C@H](CC(N)=O)NC(=O)[C@@H]4CCCN4C(=O)[C@H](CSSC[C@H](NC(=O)CN)C(=O)N[C@@H](CCCCN)C(=O)NCC(=O)N[C@@H](CC(C)C)C(=O)NCC(=O)N[C@@H](CC(=O)O)C(=O)N[C@@H](CO)C(=O)N3)NC2=O)C(=O)N[C@@H](CO)C(=O)N[C@@H](CO)C(=O)N[C@@H](CCCCN)C(=O)N[C@@H](Cc2c[nH]cn2)C(=O)N[C@@H](CCCCN)C(=O)N[C@@H](Cc2c[nH]c3ccccc23)C(=O)N1)C(C)C)C(N)=O` [F5L] (H-GCKGLGDSCTPGKNECCPNYACSSKHKWCKVYL-NH2; disulfide 2-17, 9-22, 16-29), the IC50 was 10000 ± 4000 nM.

For `CC(C)C[C@H](NC(=O)[C@H](Cc1ccc(O)cc1)NC(=O)[C@@H](NC(=O)[C@H](CCCCN)NC(=O)[C@@H]1CSSC[C@@H]2NC(=O)[C@H](CCC(=O)O)NC(=O)[C@H](CC(N)=O)NC(=O)[C@H](CCCCN)NC(=O)CNC(=O)[C@@H]3CCCN3C(=O)[C@H]([C@@H](C)O)NC(=O)[C@@H]3CSSC[C@H](NC(=O)[C@H](C)NC(=O)[C@H](Cc4ccc(O)cc4)NC(=O)[C@H](CC(N)=O)NC(=O)[C@@H]4CCCN4C(=O)[C@H](CSSC[C@H](NC(=O)CN)C(=O)N[C@@H](CCCCN)C(=O)NCC(=O)N[C@@H](Cc4c[nH]c5ccccc45)C(=O)NCC(=O)N[C@@H](CC(=O)O)C(=O)N[C@@H](CO)C(=O)N3)NC2=O)C(=O)N[C@@H](CO)C(=O)N[C@@H](CO)C(=O)N[C@@H](CCCCN)C(=O)N[C@@H](Cc2c[nH]cn2)C(=O)N[C@@H](CCCCN)C(=O)N[C@@H](Cc2c[nH]c3ccccc23)C(=O)N1)C(C)C)C(N)=O` [F5W] (H-GCKGWGDSCTPGKNECCPNYACSSKHKWCKVYL-NH2; disulfide 2-17, 9-22, 16-29), the IC50 was 833 ± 81 nM.

`CC(C)C[C@H](NC(=O)[C@H](Cc1ccc(O)cc1)NC(=O)[C@@H](NC(=O)[C@H](CCCCN)NC(=O)[C@@H]1CSSC[C@@H]2NC(=O)[C@H](CCC(=O)O)NC(=O)[C@H](CC(N)=O)NC(=O)[C@H](CCCCN)NC(=O)CNC(=O)[C@@H]3CCCN3C(=O)[C@H]([C@@H](C)O)NC(=O)[C@@H]3CSSC[C@H](NC(=O)[C@H](C)NC(=O)[C@H](Cc4ccc(O)cc4)NC(=O)[C@H](CC(N)=O)NC(=O)[C@@H]4CCCN4C(=O)[C@H](CSSC[C@H](NC(=O)[C@@H](N)Cc4ccccc4)C(=O)N[C@@H](CCCCN)C(=O)NCC(=O)N[C@@H](Cc4ccccc4)C(=O)NCC(=O)N[C@@H](CC(=O)O)C(=O)N[C@@H](CO)C(=O)N3)NC2=O)C(=O)N[C@@H](CO)C(=O)N[C@@H](CO)C(=O)N[C@@H](CCCCN)C(=O)N[C@@H](Cc2c[nH]cn2)C(=O)N[C@@H](CCCCN)C(=O)N[C@@H](Cc2c[nH]c3ccccc23)C(=O)N1)C(C)C)C(N)=O` [G1F] (H-FCKGFGDSCTPGKNECCPNYACSSKHKWCKVYL-NH2; disulfide 2-17, 9-22, 16-29) gave an IC50 of 176 ± 47 nM.

Compound `CC(C)C[C@H](NC(=O)[C@H](Cc1ccc(O)cc1)NC(=O)[C@@H](NC(=O)[C@H](CCCCN)NC(=O)[C@@H]1CSSC[C@@H]2NC(=O)[C@H](CCC(=O)O)NC(=O)[C@H](CC(N)=O)NC(=O)[C@H](CCCCN)NC(=O)[C@H](CCC(=O)O)NC(=O)[C@@H]3CCCN3C(=O)[C@H]([C@@H](C)O)NC(=O)[C@@H]3CSSC[C@H](NC(=O)[C@H](C)NC(=O)[C@H](Cc4ccc(O)cc4)NC(=O)[C@H](CC(N)=O)NC(=O)[C@@H]4CCCN4C(=O)[C@H](CSSC[C@H](NC(=O)CN)C(=O)N[C@@H](CCCCN)C(=O)NCC(=O)N[C@@H](Cc4ccccc4)C(=O)NCC(=O)N[C@@H](CC(=O)O)C(=O)N[C@@H](CO)C(=O)N3)NC2=O)C(=O)N[C@@H](CO)C(=O)N[C@@H](CO)C(=O)N[C@@H](CCCCN)C(=O)N[C@@H](Cc2c[nH]cn2)C(=O)N[C@@H](CCCCN)C(=O)N[C@@H](Cc2c[nH]c3ccccc23)C(=O)N1)C(C)C)C(N)=O` [G12E] (H-GCKGFGDSCTPEKNECCPNYACSSKHKWCKVYL-NH2; disulfide 2-17, 9-22, 16-29) has an IC50 of 359 ± 82 nM.

For `CC(C)C[C@@H]1NC(=O)[C@H](Cc2ccc(O)cc2)NC(=O)[C@H](CC(N)=O)NC(=O)[C@H](CCCCN)NC(=O)[C@@H]2CSSC[C@H](NC(=O)CNC(=O)[C@@H](N)CCCCN)C(=O)N[C@@H](CCCCN)C(=O)NCC(=O)N[C@@H](Cc3ccccc3)C(=O)NCC(=O)N[C@@H](CC(=O)O)C(=O)N[C@@H](CO)C(=O)N[C@H]3CSSC[C@H](NC1=O)C(=O)N[C@@H](CO)C(=O)N[C@@H](CO)C(=O)N[C@@H](C)C(=O)N[C@@H](Cc1c[nH]cn1)C(=O)N[C@@H](CCCCN)C(=O)N[C@@H](Cc1c[nH]c4ccccc14)C(=O)N[C@H](C(=O)N[C@@H](CCCCN)C(=O)N[C@H](C(=O)N[C@@H](Cc1ccc(O)cc1)C(=O)N[C@@H](CC(C)C)C(=O)N[C@H](C(N)=O)C(C)C)C(C)C)CSSC[C@H](NC(=O)[C@H](CCC(=O)O)NC(=O)[C@H](CC(N)=O)NC(=O)[C@H](CCCCN)NC(=O)CNC(=O)[C@@H]1CCCN1C(=O)[C@H]([C@@H](C)O)NC3=O)C(=O)N2` [HNTX-III-H4-K25A] (H-KGCKGFGDSCTPGKNECCKNYLCSSAHKWCKVYLV-NH2; disulfide 3-18, 10-23, 17-30; N-terminus and C-terminus assumed), the “inhibition of rKv4.2, in words” value (analogue compared with its parent toxin) was “disappeared”.

Work on `CC(C)C[C@H](NC(=O)[C@H](Cc1ccc(O)cc1)NC(=O)[C@@H](NC(=O)[C@H](CCCCN)NC(=O)[C@@H]1CSSC[C@@H]2NC(=O)[C@H](CCC(=O)O)NC(=O)[C@H](CC(N)=O)NC(=O)[C@H](CCCCN)NC(=O)CNC(=O)[C@@H]3CCCN3C(=O)[C@H]([C@@H](C)O)NC(=O)[C@@H]3CSSC[C@H](NC(=O)[C@H](C)NC(=O)[C@H](Cc4ccc(O)cc4)NC(=O)[C@H](CCCCN)NC(=O)[C@@H]4CCCN4C(=O)[C@H](CSSC[C@H](NC(=O)CN)C(=O)N[C@@H](CCCCN)C(=O)NCC(=O)N[C@@H](Cc4ccccc4)C(=O)NCC(=O)N[C@@H](CC(=O)O)C(=O)N[C@@H](CO)C(=O)N3)NC2=O)C(=O)N[C@@H](CO)C(=O)N[C@@H](CO)C(=O)N[C@@H](CCCCN)C(=O)N[C@@H](Cc2c[nH]cn2)C(=O)N[C@@H](CCCCN)C(=O)N[C@@H](Cc2c[nH]c3ccccc23)C(=O)N1)C(C)C)C(N)=O` [N19K] (H-GCKGFGDSCTPGKNECCPKYACSSKHKWCKVYL-NH2; disulfide 2-17, 9-22, 16-29) yielded an IC50 of 475 ± 103 nM.
